Our source for the T/C values is PubChem BioAssay AID192 (DTP/NCI, 2004).

This assay relates to BDF1 mice, B16 melanoma ip, median survival T/C. The assay is described as follows: NCI In Vivo Anticancer Drug Screen. Data for tumor model B16 Melanoma (intraperitoneal) in B6D2F1 (BDF1) mice. As to conditions: endpoint: median survival time, higher = longer survival. Put shortly: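 Transplantable tumor model; survival or tumor size measured; reported as T/C, treated over vehicle control.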

Setting [1] is: dose: 50.0 mg/kg/injection, schedule: Q01DX009 (ip), vehicle: Klucel (hydroxypropylcellulose) (HPC).
Where [2] appears, read: dose: 100.0 mg/kg/injection, schedule: Q01DX009 (ip), vehicle: Klucel (hydroxypropylcellulose) (HPC).
Where [3] appears, read: dose: 200.0 mg/kg/injection, schedule: Q01DX009 (ip), vehicle: Klucel (hydroxypropylcellulose) (HPC).
Where [4] appears, read: dose: 6.25 mg/kg/injection, schedule: Q01DX009 (ip), vehicle: saline with Tween-80.
[5] abbreviates: dose: 12.5 mg/kg/injection, schedule: Q01DX009 (ip), vehicle: saline with Tween-80.
[6] abbreviates: dose: 25.0 mg/kg/injection, schedule: Q01DX009 (ip), vehicle: saline with Tween-80.
[7] abbreviates: dose: 50.0 mg/kg/injection, schedule: Q01DX009 (ip), vehicle: saline with Tween-80.
[8] abbreviates: dose: 50.0 mg/kg/injection, schedule: Q01DX009 (ip), vehicle: saline.
The mark [9] stands for this setting: dose: 100.0 mg/kg/injection, schedule: Q01DX009 (ip), vehicle: saline.
[10] abbreviates: dose: 200.0 mg/kg/injection, schedule: Q01DX009 (ip), vehicle: saline.
The mark [11] stands for this setting: dose: 12.5 mg/kg/injection, schedule: Q01DX009 (ip), vehicle: Klucel (hydroxypropylcellulose) (HPC).
The mark [12] stands for this setting: dose: 25.0 mg/kg/injection, schedule: Q01DX009 (ip), vehicle: Klucel (hydroxypropylcellulose) (HPC).
Where [13] appears, read: dose: 100.0 mg/kg/injection, schedule: Q01DX009 (ip), vehicle: saline with Tween-80.
Setting [14] is: dose: 200.0 mg/kg/injection, schedule: Q01DX009 (ip), vehicle: saline with Tween-80.
Setting [15] is: dose: 100.0 mg/kg/injection, schedule: Q04DX003 (ip), vehicle: saline with Tween-80.
Setting [16] is: dose: 400.0 mg/kg/injection, schedule: Q04DX003 (ip), vehicle: saline with Tween-80.
Setting [17] is: dose: 400.0 mg/kg/injection, schedule: Q01DX009 (ip), vehicle: Klucel (hydroxypropylcellulose) (HPC).

Where “and” joins values, the source holds several entries; their conditions need not be identical. Equal entries are not always repeated. Inconclusive results and toxic doses are left out. Square brackets hold non-standard residues; d marks the D form. Peptide text beside a SMILES is read from it. ξ: configuration not given here. Ac5c = NC1(C(=O)O)CCCC1; Abu = CC[CH](N)C(=O)O; ξS = NC(CO)C(=O)O

Turning to `NNC(=O)Cc1nc2ccccc2[nH]c1=O`, the T/C is 96 % of control under setting [1], 96 % of control under setting [2] and 90 % of control under setting [3].

Turning to `O=[N+]([O-])O.[NH-]C1CCCCC1[NH-].[NH-]C1CCCCC1[NH-].[NH-]C1CCCCC1[NH-].[OH-].[OH-].[OH-].[Pt+4].[Pt+4].[Pt+4]` (centres undefined), the T/C (dose: 0.25 mg/kg/injection, schedule: Q01DX009 (ip), vehicle: water) was 109 % of control and 119 % of control; the T/C (dose: 0.5 mg/kg/injection, schedule: Q01DX009 (ip), vehicle: water) was 113 % of control and 123 % of control.

For the compound `C=CC(=O)[O][Pb]([CH3])([CH3])[CH3]`, the T/C is 94 % of control (dose: 0.75 mg/kg/injection, schedule: Q01DX009 (ip), vehicle: saline with Tween-80) and 95 % of control (dose: 1.5 mg/kg/injection, schedule: Q01DX009 (ip), vehicle: saline with Tween-80).

For `CCCCN(CCCC)CC(O)c1ccnc2cc3c(cc12)OCO3` (centres undefined), the T/C is, setting by setting: (dose: 25.0 mg/kg/injection, schedule: Q04DX003 (ip), vehicle: Klucel (hydroxypropylcellulose) (HPC)) 94 % of control; (dose: 50.0 mg/kg/injection, schedule: Q04DX003 (ip), vehicle: Klucel (hydroxypropylcellulose) (HPC)) 89 % of control; (dose: 100.0 mg/kg/injection, schedule: Q04DX003 (ip), vehicle: Klucel (hydroxypropylcellulose) (HPC)) 89 % of control.

Take `Cc1c2cc(Cl)c3ccccc3c2c[n+]2ccccc12`: the T/C (dose: 3.12 mg/kg/injection, schedule: Q01DX009 (ip), vehicle: saline with Tween-80) is 110 % of control; the T/C under setting [4] was 113 % of control; the T/C under setting [5] is 110 % of control; the T/C under setting [6] was 115 % of control; the T/C under setting [7] is 115 % of control.

Take `COC1CC(C)C(OC)c2cc(O)cc(c2O)NC(=O)/C(C)=C/C=C\C(C)C(OC(N)=O)/C(C)=C\C(C)C1OC` (centres undefined): the T/C (dose: 2.5 mg/kg/injection, schedule: Q01DX009 (ip), vehicle: Klucel (hydroxypropylcellulose) (HPC)) is 176 % of control and 187 % of control; the T/C (dose: 5.0 mg/kg/injection, schedule: Q01DX009 (ip), vehicle: Klucel (hydroxypropylcellulose) (HPC)) was 177 % of control and 208 % of control; the T/C (dose: 5.0 mg/kg/injection, schedule: Q01DX009 (ip), vehicle: saline + alcohol) was 242 % of control.

For `COc1cc2cc3c4cc(OC)c(OC)cc4cc[n+]3c(C)c2cc1OC`, the T/C (dose: 400.0 mg/kg/injection, schedule: Q01DX009 (ip), vehicle: saline sonified) is 86 % of control.

As for `Nc1nc2n[nH]nc2c(=O)[nH]1`, the T/C is 108 % of control (dose: 25.0 mg/kg/injection, schedule: Q01DX009 (ip), vehicle: saline); 108 % of control under setting [8]; 113 % of control under setting [9]; 111 % of control under setting [10].

As for `Cc1ccc(NC(=O)c2cccc(C(=O)Nc3ccc(C)cc3C)c2)c(C)c1`, the T/C is, setting by setting: under setting [11], 115 % of control; under setting [12], 96 % of control; under setting [1], 102 % of control.

As to `CCC(N)C(=O)NC(C(N)=O)C(C)C` (centres undefined) (H-[Abu]-Val-NH2; configuration not given here), the T/C was 90 % of control under setting [8]; 100 % of control under setting [9]; 110 % of control under setting [10]; 100 % of control (dose: 400.0 mg/kg/injection, schedule: Q01DX009 (ip), vehicle: saline).

As for `Cc1ccc(C(=O)/C=C/c2ccccc2)cc1`, the T/C (dose: 25.0 mg/kg/injection, schedule: Q01DX009 (ip), vehicle: other) is 100 % of control; the T/C (dose: 50.0 mg/kg/injection, schedule: Q01DX009 (ip), vehicle: other) is 105 % of control; the T/C (dose: 100.0 mg/kg/injection, schedule: Q01DX009 (ip), vehicle: other) is 107 % of control; the T/C (dose: 200.0 mg/kg/injection, schedule: Q01DX009 (ip), vehicle: other) is 100 % of control.

Regarding `CCCCCCCC(N)=O`, the T/C runs as follows: under setting [13], 100 % of control; under setting [14], 106 % of control.

Regarding `COC(C/C=C\C=C\CC/C=C/CC(C)/C=C/C(=C\C(=O)O)CC(=O)O)/C(C)=C\C=C(/C)C(=O)O` (centres undefined), the T/C (dose: 0.05 mg/kg/injection, schedule: Q01DX009 (ip), vehicle: saline) is 108 % of control; the T/C (dose: 0.1 mg/kg/injection, schedule: Q01DX009 (ip), vehicle: saline) is 107 % of control; the T/C (dose: 0.2 mg/kg/injection, schedule: Q01DX009 (ip), vehicle: saline) is 107 % of control; the T/C (dose: 0.4 mg/kg/injection, schedule: Q01DX009 (ip), vehicle: saline) was 94 % of control.

As for `NC(CO)C(=O)NC1(C(=O)O)CCCC1` (centres undefined) (H-[ξS]-[Ac5c]-OH), the T/C is 123 % of control under setting [15]; 122 % of control (dose: 133.0 mg/kg/injection, schedule: Q04DX003 (ip), vehicle: saline with Tween-80); 117 % of control (dose: 300.0 mg/kg/injection, schedule: Q04DX003 (ip), vehicle: saline with Tween-80); 100 % of control under setting [16].

Take `Cc1cc(C)c(S(=O)(=O)O)cc1C`: the T/C under setting [8] was 115 % of control, the T/C under setting [9] is 104 % of control and the T/C under setting [10] was 87 % of control.

For `S=C([S][Sn]([c]1ccccc1)([c]1ccccc1)[c]1ccccc1)N1CCOCC1`, the T/C (dose: 1.56 mg/kg/injection, schedule: Q01DX009 (ip), vehicle: saline with Tween-80) was 107 % of control; the T/C (dose: 3.13 mg/kg/injection, schedule: Q01DX009 (ip), vehicle: saline with Tween-80) is 100 % of control; the T/C under setting [4] was 110 % of control.

With `CCO/C([O-])=C/[P+](c1ccccc1)(c1ccccc1)c1ccccc1`, the T/C is 103 % of control under setting [11], 103 % of control under setting [12] and 100 % of control under setting [1].

For `O=C(COc1ccc(Cl)cc1)Nc1cc(C(F)(F)F)ccc1Cl`, the T/C was 103 % of control under setting [6], 96 % of control under setting [7] and 105 % of control under setting [13].

As to `CCCCN(CCCC)CCC(=O)c1ccc(OC)c2ccccc12`, the T/C is 99 % of control under setting [5] and 88 % of control under setting [6].

`CNC(=O)Nc1ccc(C(=O)NC(C)C)cc1`: the T/C under setting [12] was 98 % of control; the T/C under setting [1] is 97 % of control; the T/C under setting [2] was 96 % of control; the T/C under setting [3] was 100 % of control; the T/C under setting [17] was 88 % of control.

Regarding `NC(=O)Oc1ccccc1`, the T/C was 100 % of control under setting [2]; 106 % of control under setting [15]; 100 % of control under setting [3]; 113 % of control (dose: 200.0 mg/kg/injection, schedule: Q04DX003 (ip), vehicle: saline with Tween-80); 110 % of control under setting [16].

Regarding `O=NN(CCCl)C(=O)Nc1c[nH]c2ccccc12`, the T/C was 153 % of control and 158 % of control under setting [12]; 157 % of control and 158 % of control and 165 % of control under setting [1]; 162 % of control and 174 % of control under setting [2]; 174 % of control under setting [3].

Take `COC1=C(C)C(=O)C2=C(C1=O)C(CO)N1C(C#N)C3CC4C(C1C2N1CCOC41)N3C` (centres undefined): the T/C was 117 % of control (dose: 0.25 mg/kg/injection, schedule: Q01DX009 (ip), vehicle: saline + alcohol); 117 % of control (dose: 0.5 mg/kg/injection, schedule: Q01DX009 (ip), vehicle: saline + alcohol); 112 % of control (dose: 1.0 mg/kg/injection, schedule: Q01DX009 (ip), vehicle: saline + alcohol).

Consider `CN(C)S(=O)(=O)Nc1cc(Cl)c(NS(=O)(=O)N(C)C)cc1Cl`, for which the T/C is, setting by setting: under setting [2], 92 % of control; under setting [3], 100 % of control; under setting [17], 89 % of control.

Take `NC(=O)N1c2ccccc2C=Cc2ccccc21`: the T/C is 112 % of control under setting [11]; 100 % of control under setting [12]; 106 % of control under setting [1]; 91 % of control under setting [2]; 90 % of control under setting [3].

Turning to `C[Si](C)(C)O/C=C1\CCCCC1=O`, the T/C runs as follows: under setting [4], 96 % of control; under setting [5], 99 % of control; under setting [6], 92 % of control; under setting [7], 94 % of control; under setting [13], 88 % of control; under setting [14], 94 % of control.
